Source: PubChem BioAssay AID248 (DTP/NCI, 2004)
Toxic doses and inconclusive results are not listed. No stated cut-off is given here; in the data, active means T/C of 150% or more; inactive means T/C below 125%. Peptide text beside a SMILES is read from it. * marks the point of attachment. Cbz = O=C(OCc1ccccc1)*

Tested on: L1210 leukemia ip in BDF1 mice, survival T/C
Assay: NCI In Vivo Anticancer Drug Screen. Data for tumor model L1210 Leukemia (intraperitoneal) in B6D2F1 (BDF1) mice
Conditions: endpoint: mean survival time, higher = longer survival
How it was run: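 Antitumor effect is assessed in tumor-bearing animals. Survival in the compound arm is compared with a vehicle-dosed control arm and expressed as their quotient.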

[1] = dose: 100.0 mg/kg/injection, schedule: Q01DX009 (ip), vehicle: Klucel (hydroxypropylcellulose) (HPC)
[2] = dose: 200.0 mg/kg/injection, schedule: Q01DX009 (ip), vehicle: Klucel (hydroxypropylcellulose) (HPC)
[3] = dose: 400.0 mg/kg/injection, schedule: Q01DX009 (ip), vehicle: Klucel (hydroxypropylcellulose) (HPC)
[4] = dose: 100.0 mg/kg/injection, schedule: Q01DX009 (ip), vehicle: saline with Tween-80
[5] = dose: 200.0 mg/kg/injection, schedule: Q01DX009 (ip), vehicle: saline with Tween-80
[6] = dose: 400.0 mg/kg/injection, schedule: Q01DX009 (ip), vehicle: saline with Tween-80
[7] = dose: 100.0 mg/kg/injection, schedule: Q01DX001 (ip), vehicle: carboxymethylcellulose (CMC)
[8] = dose: 100.0 mg/kg/injection, schedule: Q01DX001 (ip), vehicle: saline

Measured: T/C

FC(F)(F)c1ccc2c(c1)N(CCCN1CCN(CCCl)CC1)c1ccccc1S2
inactive: dose: 0.78 mg/kg/injection, schedule: Q01DX009 (ip), vehicle: saline 101 % of control | dose: 1.56 mg/kg/injection, schedule: Q01DX009 (ip), vehicle: saline 107 % of control | dose: 3.12 mg/kg/injection, schedule: Q01DX009 (ip), vehicle: saline 107 % of control | dose: 6.25 mg/kg/injection, schedule: Q04DX003 (ip), vehicle: saline 96 % of control | dose: 12.5 mg/kg/injection, schedule: Q01DX009 (ip), vehicle: saline 110 % of control | dose: 12.5 mg/kg/injection, schedule: Q04DX003 (ip), vehicle: saline 97 % of control | dose: 25.0 mg/kg/injection, schedule: Q04DX003 (ip), vehicle: saline 110 % of control | dose: 50.0 mg/kg/injection, schedule: Q04DX003 (ip), vehicle: saline 89 % of control

O=C1CC(c2ccccc2)=NCCN1
inactive: [1] 97 % of control | [2] 95 % of control | [3] 114 % of control

CCC1C(CC(=O)O)=C(C)NC(C)=C1CC(=O)O
inactive: [1] 109 % of control | [2] 90 % of control

COc1ccccc1NC(=O)Nc1cc(C)ccc1C
inactive: [1] 88 % of control | dose: 100.0 mg/kg/injection, schedule: Q04DX003 (ip), vehicle: Klucel (hydroxypropylcellulose) (HPC) 90 % of control | [2] 92 % of control | dose: 200.0 mg/kg/injection, schedule: Q04DX003 (ip), vehicle: Klucel (hydroxypropylcellulose) (HPC) 95 % of control | [3] 88 % of control | dose: 400.0 mg/kg/injection, schedule: Q04DX003 (ip), vehicle: Klucel (hydroxypropylcellulose) (HPC) 88 % of control

NC(=O)CNC(=O)CNC(=O)OCc1ccccc1 (Cbz-Gly-Gly-NH2)
inactive: [4] 100 % of control | [5] 92 % of control | [6] 92 % of control

CC(C)CN(C)N=Nc1ccc(C(=N)N)cc1
inactive: dose: 5.0 mg/kg/injection, schedule: Q01DX001 (ip), vehicle: carboxymethylcellulose (CMC) 94 % of control | dose: 10.0 mg/kg/injection, schedule: Q01DX001 (ip), vehicle: carboxymethylcellulose (CMC) 97 % of control | dose: 20.0 mg/kg/injection, schedule: Q01DX001 (ip), vehicle: carboxymethylcellulose (CMC) 97 % of control | dose: 40.0 mg/kg/injection, schedule: Q01DX001 (ip), vehicle: carboxymethylcellulose (CMC) 92 % of control | dose: 80.0 mg/kg/injection, schedule: Q01DX001 (ip), vehicle: carboxymethylcellulose (CMC) 91 % of control | [7] 105 % of control

CC(N)C(=O)NC(C)C(=O)O (stereo not drawn)
inactive: dose: 25.0 mg/kg/injection, schedule: Q01DX001 (ip), vehicle: Klucel (hydroxypropylcellulose) (HPC) 97 % of control | dose: 25.0 mg/kg/injection, schedule: Q01DX001 (ip), vehicle: saline 102 % of control | dose: 25.0 mg/kg/injection, schedule: Q04DX002 (ip), vehicle: saline 102 % of control | dose: 50.0 mg/kg/injection, schedule: Q01DX001 (ip), vehicle: Klucel (hydroxypropylcellulose) (HPC) 97 % of control | dose: 50.0 mg/kg/injection, schedule: Q01DX001 (ip), vehicle: saline 97 % of control | dose: 50.0 mg/kg/injection, schedule: Q04DX002 (ip), vehicle: saline 96 % of control | dose: 100.0 mg/kg/injection, schedule: Q01DX001 (ip), vehicle: Klucel (hydroxypropylcellulose) (HPC) 97 % of control | [8] 93 % of control | dose: 100.0 mg/kg/injection, schedule: Q04DX002 (ip), vehicle: saline 102 % of control

CC(N)C(=O)Nc1ccccc1 (stereo not drawn)
inactive: dose: 100.0 mg/kg/injection, schedule: Q01DX009 (ip), vehicle: water 94 % of control | dose: 100.0 mg/kg/injection, schedule: Q04DX003 (ip), vehicle: water 97 % of control | dose: 200.0 mg/kg/injection, schedule: Q01DX009 (ip), vehicle: water 100 % of control | dose: 200.0 mg/kg/injection, schedule: Q04DX003 (ip), vehicle: water 103 % of control | dose: 400.0 mg/kg/injection, schedule: Q01DX009 (ip), vehicle: water 100 % of control | dose: 400.0 mg/kg/injection, schedule: Q04DX003 (ip), vehicle: water 97 % of control

COC(=O)C1=C(\N2CCCC2)CCCCC/C=C\1C(=O)OC
inactive: dose: 75.0 mg/kg/injection, schedule: Q01DX009 (ip), vehicle: saline with Tween-80 97 % of control | dose: 150.0 mg/kg/injection, schedule: Q01DX009 (ip), vehicle: saline with Tween-80 103 % of control | dose: 300.0 mg/kg/injection, schedule: Q01DX009 (ip), vehicle: saline with Tween-80 107 % of control

C[N+](C)(C)CSc1ccccc1-n1cccc1
inactive: dose: 12.5 mg/kg/injection, schedule: Q01DX009 (ip), vehicle: Klucel (hydroxypropylcellulose) (HPC) 112 % of control | dose: 12.5 mg/kg/injection, schedule: Q04DX003 (ip), vehicle: Klucel (hydroxypropylcellulose) (HPC) 103 % of control | dose: 25.0 mg/kg/injection, schedule: Q01DX009 (ip), vehicle: Klucel (hydroxypropylcellulose) (HPC) 103 % of control | dose: 25.0 mg/kg/injection, schedule: Q04DX003 (ip), vehicle: Klucel (hydroxypropylcellulose) (HPC) 92 % of control | dose: 50.0 mg/kg/injection, schedule: Q01DX009 (ip), vehicle: Klucel (hydroxypropylcellulose) (HPC) 110 % of control | dose: 50.0 mg/kg/injection, schedule: Q04DX003 (ip), vehicle: Klucel (hydroxypropylcellulose) (HPC) 97 % of control

NC(Cc1ccc(O)cc1)C(=O)OCc1ccccc1 (stereo not drawn)
inactive: [4] 88 % of control | dose: 100.0 mg/kg/injection, schedule: Q04DX002 (ip), vehicle: Klucel (hydroxypropylcellulose) (HPC) 104 % of control | dose: 100.0 mg/kg/injection, schedule: Q04DX003 (ip), vehicle: saline with Tween-80 97 % of control | [5] 94 % of control | dose: 200.0 mg/kg/injection, schedule: Q04DX002 (ip), vehicle: Klucel (hydroxypropylcellulose) (HPC) 96 % of control | dose: 200.0 mg/kg/injection, schedule: Q04DX003 (ip), vehicle: saline with Tween-80 94 % of control | [6] 91 % of control | dose: 400.0 mg/kg/injection, schedule: Q04DX002 (ip), vehicle: Klucel (hydroxypropylcellulose) (HPC) 96 % of control | dose: 400.0 mg/kg/injection, schedule: Q04DX003 (ip), vehicle: saline with Tween-80 103 % of control

CN1CCCN(CCOC(c2ccccc2)c2ccccc2)CC1
inactive: dose: 55.0 mg/kg/injection, schedule: Q01DX Z (ip), vehicle: methylcellulose (MC) 93 % of control | dose: 83.0 mg/kg/injection, schedule: Q01DX Z (ip), vehicle: methylcellulose (MC) 92 % of control

CC1=NN(c2ccccc2)C(=O)C1N=Nc1ccc(S(=O)(=O)Nc2cc(C)nc(C)n2)cc1 (stereo not drawn)
inactive: [7] 98 % of control | dose: 200.0 mg/kg/injection, schedule: Q01DX001 (ip), vehicle: carboxymethylcellulose (CMC) 98 % of control | dose: 400.0 mg/kg/injection, schedule: Q01DX001 (ip), vehicle: carboxymethylcellulose (CMC) 95 % of control

CC(=O)OC1(c2ccc(Cl)cc2)OC(=O)C(c2ccccc2)=C1Cc1ccccc1 (stereo not drawn)
inactive: dose: 12.5 mg/kg/injection, schedule: Q01DX009 (ip), vehicle: saline with Tween-80 93 % of control | dose: 25.0 mg/kg/injection, schedule: Q01DX009 (ip), vehicle: saline with Tween-80 86 % of control | dose: 50.0 mg/kg/injection, schedule: Q01DX009 (ip), vehicle: saline with Tween-80 86 % of control | [5] 95 % of control

O=C(O)C(F)(F)C(F)(F)C(F)(F)F
inactive: [8] 105 % of control | dose: 200.0 mg/kg/injection, schedule: Q01DX001 (ip), vehicle: saline 103 % of control | dose: 400.0 mg/kg/injection, schedule: Q01DX001 (ip), vehicle: saline 92 % of control
